We go through three compounds from paper PMC9569971, “New Oxazolo[5,4-d]pyrimidines as Potential Anticancer Agents: Their Design, Synthesis, and In Vitro Biological Activity Research” (International Journal of Molecular Sciences, 2022).

Entries after “also recorded” stand apart in the source; their conditions may differ. Marks after values point to notes of the source that are not given here.

Series [1] concerns murine fibroblasts (L929). Nature of the series: MTT viability assay, L929. The conditions noted are these: tested 1–500 µM. The class given is cell-based. On the procedure:
(§1) When the confluence was greater than 70%, adherent cell lines were detached from the bottle surface with a TrypLE solution and then used in assays or reduced. The cells were collected into centrifuge tubes and centrifuged at 1000× g for 5 min at room temperature. The supernatant was removed to dry. The cell pellets were then resuspended in an appropriate medium. The cells were counted using a Bürker chamber and resuspended in 96-well plates to a cell density of 10,000 cells per well for MTT assay. For the rhodamine accumulation test and the detection of apoptosis assay, cells were seeded at a density of 30,000 per well. In the migration assay, cells were seeded at a density of 20,000 per well, and monolayer formation was awaited.
(§2) In this study, normal human dermal fibroblasts (NHDFs), breast cancer cells (MCF7), human lung adenocarcinoma cells (A549), murine fibroblasts (L929), colon adenocarcinoma cells (HT29), and colorectal adenocarcinoma cells (LoVo) were used. All cell lines were cultured in the recommended media. […] The human lung adenocarcinoma cell line A549 and breast cancer cell line MCF-7 were obtained from the ECACC. These cell lines were cultured in Eagle’s minimal essential medium (MEM). Murine fibroblast L929 (Sigma-Aldrich, Merck Group, Headquarters, Darmstadt, Germany; the European Collection of Authenticated Cell Cultures—ECACC) cells were grown in DMEM. […] All media were supplemented with 10% FBS and 100 µg/mL of penicillin–streptomycin.
(§3) All compounds were dissolved in DMSO and the reference drugs were dissolved in physiological saline to concentrations of 10 mM. Concentrations from 1 to 500 μM in the media recommended for the cell lines were prepared for the tests.
(§4) All of the synthesized derivatives were evaluated via the MTT assay. All cell lines were seeded into 96-well plates at a density of 10,000 cells per well. To allow the cells to adhere to the surface of the plates, they were incubated overnight before the application of the test compounds. […] The tests were performed for concentrations of 1, 5, 10, 25, 50, 100, 250, and 500 μM. The solutions of the test compounds were removed from the culture on the 96-well plates. […] The supernatant was then removed. The violet crystal was dissolved in isopropanol for 30 min by shaking. Absorbance was measured at 570 nm.
(§5) Biological assays were performed in three independent replicates, and each replicate used four samples. Three repetitions were made for the ELISA determinations. For the assessment of cytotoxicity, mathematical models were developed using the GraphPad PRISM software, based on which CC50 was determined. The values of CC50 were estimated based on nonlinear regression using the dependence of the biological effect on the molar concentrations of the compounds (four-parameter logistic model with Hill slope).
A general note: Formazan colour is commonly taken as a measure of viable cells.

For series [2], the system named is normal human dermal fibroblasts (NHDF). Nature of the series: MTT viability assay, NHDF. The conditions noted are these: tested 1–500 µM. The class given is cell-based. On the procedure:
as §1, §2, §3, §4, §5

The subject of series [3] is lung adenocarcinoma (A549). Nature of the series: MTT viability assay, A549. It counts as cell-based, human. On the procedure:
as §1, §2, §3, §4, §5

The test system of series [4] is breast adenocarcinoma (MCF7). Nature of the series: MTT viability assay, MCF7. The class given is cell-based, human. The conditions noted are these: MCF7, MTT, tested 1–500 µM. On the procedure:
as §1, §2, §3, §4, §5

Series [5] deals with primary colon adenocarcinoma (HT29). Kind of series: MTT viability assay, HT29. The class given is cell-based, human. On the procedure:
as §1, §2, §3, §4, §5

Series [6] addresses T1, P-glycoprotein (P-gp) in HT29 cells (Homo sapiens, UniProt P08183).
T1 construct: evaluate their effects on the efflux activity of P-gp in HT29 cells; host or cells: HT29 colon adenocarcinoma cells
Kind of series: Rhodamine-123 (Rh-123) accumulation assay. It counts as cell-based. Particulars: HT29, 24 h, over all tested concentrations (1–20 μM). On the procedure:
as §1
The level of significance was set at p < 0.05.

Series [7] deals with HT29 primary colon adenocarcinoma cells. Nature of the series: Detection of apoptosis (Annexin V FITC / propidium iodide). It counts as cell-based, human. Also noted: unit not given here. Particulars: 24 h. On the procedure:
as §1, with “All cell lines were grown in 5% CO2 at 95% humidity and 37 °C, with both morphology and confluence assessed twice per week. When” for “When”
HT29 primary colon adenocarcinoma cells were grown in 96-well plates for 24 h. The 5 selected derivatives were added at concentrations of 1, 2, 5, and 10 µM, and then incubated for 24 h. The mixture of Annexin V conjugated with fluorescein and propidium iodide in PBS with Mg^2+ and Ca^2+ ions (Thermo Fisher Scientific, Waltham, MA, USA) was then applied. The incubation lasted 20 min at 37 °C. Pictures were taken using a fluorescence microscope. Thirteen images were taken from each well using an EVOS FL fluorescence microscope, with three replications for each compound. The open ImageJ space was used to analyze the number of cells. The Thermo Fisher Dead Cell Apoptosis Kit with Annexin V FITC and Propidium Iodide (PI) detects phosphatidylserine extrusion in apoptotic cells using Annexin V conjugated with a green fluorescent FITC dye and dead cells stained by PI with red fluorescence.

Series [8] concerns HT29. On the set-up: method as in PMID 32759841. Particulars: estimated based on data taken from reference; cited from earlier work.
The subject of series [9] is Jurkat T-cell. Also noted: method as in PMID 32759841. The conditions noted are these: cited from earlier work.
Series [10] deals with HT29 cells. Kind of series: Migration (scratch) assay. The class given is cell-based, human. Particulars: control T 155558.2, control T0 544366.45. On the procedure:
The scratch test was performed to verify that the tested compound 3g could inhibit the formation of metastases by the HT29 cell line. The seeded HT29 cells were incubated until they formed a monolayer over the entire surface of the well. Then, a scratch test was performed by making a scratch in the monolayer and measuring its width—that is, To, amounting to 544,366.45 μm^2. Freshly prepared compounds were added to the HT29 cells at concentrations of 10, 25, 50, and 100 μM. Breeding plates were incubated for 24 h. The next day, scratch width was measured again using the ImageJ open-source platform. […] The lowest cellular overgrowth of HT29 culture occurred at the concentration of 100 μM for the compound. Compound 3g inhibited the migration of HT29 cells more strongly than the reference drugs, showing that it has the potential to inhibit metastasis. The width of the scratch after 24 h when no compound was applied to the cells was used as a control (T = 155,558.2 μm^2).
as §1, with “All cell lines were grown in 5% CO2 at 95% humidity and 37 °C, with both morphology and confluence assessed twice per week. When” for “When”
After seeding, HT29 cells were incubated until they formed a monolayer over the entire surface of the well. A scratch was made on the surface overgrown with cells, and then photomicrographs of the scratch were taken using the EVOS FL microscope. The freshly prepared compound 3g and the reference drugs were added at concentrations of 10, 25, 50, and 100 µM. Then, they were incubated for 24 h, and micrographs were performed at that time using the EVOS FL microscope. The scratch width was measured using the ImageJ open-source platform. The measurement of scratch width was also performed after 24 h without adding compounds.

T1 sequence (P08183 whole entry): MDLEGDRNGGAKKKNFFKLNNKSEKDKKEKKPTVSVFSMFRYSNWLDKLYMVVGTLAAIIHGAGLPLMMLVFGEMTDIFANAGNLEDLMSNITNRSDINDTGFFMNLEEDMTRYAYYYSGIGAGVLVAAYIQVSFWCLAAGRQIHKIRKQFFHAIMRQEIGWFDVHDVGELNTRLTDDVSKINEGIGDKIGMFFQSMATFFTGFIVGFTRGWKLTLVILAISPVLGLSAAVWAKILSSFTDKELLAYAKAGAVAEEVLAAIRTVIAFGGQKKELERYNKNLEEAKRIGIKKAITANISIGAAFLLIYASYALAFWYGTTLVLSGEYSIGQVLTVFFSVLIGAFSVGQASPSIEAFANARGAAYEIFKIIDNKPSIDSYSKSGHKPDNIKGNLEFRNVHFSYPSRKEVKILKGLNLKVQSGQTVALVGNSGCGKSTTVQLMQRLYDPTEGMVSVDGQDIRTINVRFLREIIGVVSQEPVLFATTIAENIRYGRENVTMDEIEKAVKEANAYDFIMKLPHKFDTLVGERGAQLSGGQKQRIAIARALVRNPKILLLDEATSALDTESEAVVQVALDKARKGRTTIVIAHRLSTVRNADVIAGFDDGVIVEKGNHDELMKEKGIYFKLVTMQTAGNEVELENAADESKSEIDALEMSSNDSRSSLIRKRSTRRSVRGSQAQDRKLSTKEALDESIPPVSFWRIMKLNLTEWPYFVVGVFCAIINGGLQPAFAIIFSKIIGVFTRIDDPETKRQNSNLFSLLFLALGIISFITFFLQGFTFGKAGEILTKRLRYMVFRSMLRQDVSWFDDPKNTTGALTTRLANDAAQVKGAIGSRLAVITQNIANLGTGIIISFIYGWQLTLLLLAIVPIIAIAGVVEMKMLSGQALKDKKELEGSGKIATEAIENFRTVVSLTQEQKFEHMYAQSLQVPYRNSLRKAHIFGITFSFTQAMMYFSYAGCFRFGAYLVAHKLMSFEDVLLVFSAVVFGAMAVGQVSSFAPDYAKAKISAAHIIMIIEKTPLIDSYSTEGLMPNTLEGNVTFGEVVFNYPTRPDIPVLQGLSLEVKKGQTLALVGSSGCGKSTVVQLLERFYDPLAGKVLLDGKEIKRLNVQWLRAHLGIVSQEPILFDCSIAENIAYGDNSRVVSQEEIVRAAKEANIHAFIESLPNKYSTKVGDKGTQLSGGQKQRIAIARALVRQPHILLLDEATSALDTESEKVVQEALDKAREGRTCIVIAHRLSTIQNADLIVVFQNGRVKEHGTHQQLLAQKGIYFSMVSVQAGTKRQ

Take `CNc1ncnc2oc(-c3c(C)noc3N)nc12` [Compound 3a, 2-(5-Amino-3-methylisoxazol-4-yl)-7-N-methylaminooxazolo[5,4-d]pyrimidine]: the “CC50 ± SD” value is listed as “no toxic activity; also recorded: Non-toxic ^b” in series [1], “Non-toxic” in [2] and “no cytotoxic activity” in [4]. The “SI (selectivity index)” value in series [3] (CC50 NHDF / CC50 A549) is >>1 ^c; in [5] (CC50 NHDF / CC50 HT29), >>1. Besides, the CC50 worked out at 245 ± 19 µM in series [3] (Homo sapiens, A549, MTT, tested 1–500 µM) and 159 ± 12.1 µM in series [5] (Homo sapiens, HT-29, HT29, MTT, tested 1–500 µM). For the same compound, the “intracellular increase in rhodamine accumulation” value in series [6] is “no intracellular increase”. For the same compound, the apoptosis mean in [7] (1 μM) was determined as 6.89; in series [7] (2 μM), 5.35; in series [7] (5 μM), 9.38; in series [7] (10 μM), 10.99. Also, the late apoptosis mean in [7] (1 μM) is on record as 11.16; in [7] (2 μM), 11.15; in series [7] (5 μM) it was 11.51; in [7] (10 μM), 12.07. Moreover, the necrosis mean in series [7] (1 μM) amounted to 4.43; in [7] (2 μM), 9.07; in series [7] (5 μM), 2.76; in [7] (10 μM) it was 5.55. Moreover, the “percent live (viable) cells” value in series [7] (1 μM) is recorded as 77.51; in series [7] (2 μM), 74.42; in [7] (5 μM), 76.34; in series [7] (10 μM) it was 71.40.
With `Cc1nc(NCCCN(C)C)c2nc(-c3c(C)noc3N)oc2n1` [SCM9], the CC50 in series [8] is 39.1 ± 7.79 µM. The “expression of apoptosis-modulating proteins” value in series [9] (Jurkat T-cell model) was “did not alter”. Also, the “expression of MAPK pathway components JNK, p38α, and p38β” value in [9] is given as “increased”.
In the case of `N.N.[Cl][Pt][Cl]` [Cisplatin, reference compound], the apoptosis mean in series [7] (1 μM) was 4.45; in [7] (2 μM) it was 7.18; in series [7] (5 μM) it was 6.28; in [7] (10 μM), 2.34. The late apoptosis mean in [7] (1 μM) is given as 26.25; in series [7] (2 μM) it was 24.44; in [7] (5 μM) it was 29.59; in series [7] (10 μM), 16.55. Besides, the necrosis mean in [7] (1 μM) is 7.81; in series [7] (2 μM), 4.42; in series [7] (5 μM), 3.95; in series [7] (10 μM), 32.35. In addition, the “percent live (viable) cells” value in series [7] (1 μM) was 50.30; in series [7] (2 μM), 52.47; in [7] (5 μM), 59.69; in series [7] (10 μM), 48.76. For the same compound, the “scratch width after 24 h, mean” value in [10] (10 μM) is listed as 171562.8 μm^2; in series [10] (25 μM), 209621 μm^2; in [10] (50 μM), 216006.4 μm^2; in series [10] (100 μM), 253653.8 μm^2. Besides, the CC50 in series [8] is 16.9 ± 1.94 µM.
